Patent US20240409585A1, “MACROCYCLIC IMMUNOMODULATORS” (priority 2021, published 2024)
Bridge positions count the residues as written; N and C are the ends. Square brackets hold non-standard residues; d marks the D form. Peptide text beside a SMILES is read from it. * marks the point of attachment. ξ: configuration not given here. Phe(4-COOH) = N[C@@H](Cc1ccc(C(=O)O)cc1)C(=O)O; Tyr(Ph) = N[C@@H](Cc1ccc(Oc2ccccc2)cc1)C(=O)O; Bip = N[C@@H](Cc1ccc(-c2ccccc2)cc1)C(=O)O; Phe(3-CN) = N#Cc1cccc(C[C@H](N)C(=O)O)c1; Phe(3-OMe) = COc1cccc(C[C@H](N)C(=O)O)c1; Phe(4-CN) = N#Cc1ccc(C[C@H](N)C(=O)O)cc1; Phe(3-Me) = Cc1cccc(C[C@H](N)C(=O)O)c1; dBta = N[C@H](Cc1csc2ccccc12)C(=O)O; Val(3-OH) = CC(C)(O)[C@H](N)C(=O)O; 4Pal = N[C@@H](Cc1ccncc1)C(=O)O; Cha = N[C@@H](CC1CCCCC1)C(=O)O; Cit = NC(=O)NCCC[C@H](N)C(=O)O; Thr(3ξ) = CC(O)[C@H](N)C(=O)O; ξ4Pal = NC(Cc1ccncc1)C(=O)O; Pip = O=C(O)[C@@H]1CCCCN1; dDab = NCC[C@@H](N)C(=O)O; Carboxymethyl = O=C(O)C*; NMeA = CN[C@@H](C)C(=O)O; Nle = CCCC[C@H](N)C(=O)O; Orn = NCCC[C@H](N)C(=O)O; Pra = C#CC[C@H](N)C(=O)O; Dab = NCC[C@H](N)C(=O)O; Dap = NC[C@H](N)C(=O)O; Ac3c = NC1(C(=O)O)CC1

target: T1, PE-labeled human PD-L1-Ig binding to Jurkat cell line over-expressing human PD-1 (Jurkat-PD-1) (Homo sapiens, UniProt Q15116); test: Jurkat-PD-1 Cell Binding High-Content Screening Assay (CBA): Method 1; settings: Jurkat HPDL1 PD1 IC50 (uM) (Method 1), Jurkat-hPD-1 cells, PE-labeled PD-L1-Ig 20 nM final
T1 construct: expressed in transfected cells; host or cells: Jurkat
T1 sequence (Q15116 25-288): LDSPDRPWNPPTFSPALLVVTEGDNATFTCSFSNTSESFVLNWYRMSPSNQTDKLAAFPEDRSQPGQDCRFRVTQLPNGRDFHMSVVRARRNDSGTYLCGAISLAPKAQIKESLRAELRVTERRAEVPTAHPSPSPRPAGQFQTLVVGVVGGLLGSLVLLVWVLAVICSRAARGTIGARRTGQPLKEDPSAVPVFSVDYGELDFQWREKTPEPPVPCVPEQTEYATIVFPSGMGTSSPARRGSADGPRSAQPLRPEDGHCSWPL

**Q.** `CC(C)C[C@@H]1NC(=O)[C@H](CCN)NC(=O)[C@@H](CC(C)C)NC(=O)[C@H](C)N(C)C(=O)[C@H](C(C)C)NC(=O)[C@H](Cc2ccc(-c3ccccc3)cc2)NC(=O)[C@H](C(C)C)NC(=O)[C@H](Cc2c[nH]c3ccccc23)NC(=O)[C@H](CC(=O)O)NC(=O)[C@H](Cc2ccncc2)NC(=O)[C@H](CN)NC(=O)CSC[C@@H](C(=O)N[C@@H](C)C(N)=O)NC(=O)[C@H]([C@@H](C)O)NC(=O)[C@H](C(C)C)NC1=O` [Compound 1542] ({CH2CO}-[Dap][4Pal]DWV[Bip]V[NMeA][dL][Dab]LVTCA-NH2; thioether N-14) was tested. Which IC50 did it give?
**A.** 0.04 µM

same assay, conditions: Jurkat-hPD-1 cells, PE-labeled PD-L1-Ig 20 nM final; read-out: Jurkat HPDL1 PD1 IC50 (uM) (Method 1)

**Q.** How did the IC50 turn out when `Cc1cccc(C[C@@H]2NC(=O)[C@H](CC(=O)O)NC(=O)[C@H](Cc3ccc(OCC(=O)O)cc3)NC(=O)[C@H](CN)NC(=O)CSC[C@@H](C(N)=O)NC(=O)[C@H](CC(N)=O)NC(=O)[C@H](C(C)C)NC(=O)[C@H](CC3CCCCC3)NC(=O)[C@H](CCN)NC(=O)[C@@H](CC(C)C)NC(=O)[C@H](C)N(C)C(=O)[C@H](Cc3ccc(OCC(=O)O)cc3)NC(=O)[C@H](Cc3ccc(-c4ccccc4)cc3)NC(=O)[C@H](Cc3ccc(OCC(=O)O)cc3)NC2=O)c1` [Compound 1647] ({CH2CO}-[Dap]Y(Carboxymethyl)D[Phe(3-Me)]Y(Carboxymethyl)[Bip]Y(Carboxymethyl)[NMeA][dL][Dab][Cha]VNC-NH2; thioether N-14) was run?
**A.** 0.04 µM

**Q.** With `CC(C)C[C@@H]1NC(=O)[C@H](CCCNC(=N)N)NC(=O)[C@@H](CC(C)C)NC(=O)[C@H](C)N(C)C(=O)[C@H](CCCNC(=N)N)NC(=O)[C@H](Cc2ccc(-c3ccccc3)cc2)NC(=O)[C@H](C(C)C)NC(=O)[C@H](Cc2c[nH]c3ccccc23)NC(=O)[C@H](CC(=O)O)NC(=O)[C@H](Cc2ccc(C#N)cc2)NC(=O)[C@H](Cc2ccccc2)NC(=O)CSC[C@@H](C(=O)N[C@@H](C)C(N)=O)NC(=O)[C@H]([C@@H](C)O)NC(=O)[C@H](C(C)C)NC1=O` [Compound 1100] ({CH2CO}-F[Phe(4-CN)]DWV[Bip]R[NMeA][dL]RLVTCA-NH2; thioether N-14) as the molecule, how does the IC50 read?
**A.** 0.53 µM

**Q.** For `CC(C)C[C@@H]1NC(=O)[C@H](Cc2c[nH]c3ccccc23)NC(=O)[C@H](CC(=O)O)NC(=O)[C@H](Cc2ccc(Oc3ccccc3)cc2)NC(=O)[C@H](Cc2ccccc2)NC(=O)CSC[C@@H](C(=O)N[C@@H](C)C(N)=O)NC(=O)[C@H](CO)NC(=O)[C@H](C(C)C)NC(=O)[C@H](CC(C)C)NC(=O)[C@H](CC(N)=O)NC(=O)[C@@H](C)NC(=O)[C@H](C)N(C)C(=O)[C@H](C(C)C)NC(=O)[C@H](Cc2ccc(-c3ccccc3)cc2)NC1=O` [Compound 1813] ({CH2CO}-F[Tyr(Ph)]DWL[Bip]V[NMeA][dA]NLVSCA-NH2; thioether N-14), which IC50 is on record?
**A.** 0.3 µM

**Q.** With `CC(C)C[C@@H]1NC(=O)[C@H](CCCN)NC(=O)[C@@H](Cc2csc3ccccc23)NC(=O)[C@H](C)N(C)C(=O)[C@H](CCCNC(=N)N)NC(=O)[C@H](Cc2ccc(-c3ccccc3)cc2)NC(=O)[C@H](C(C)C)NC(=O)[C@H](Cc2c[nH]c3ccccc23)NC(=O)[C@H](CC(=O)O)NC(=O)[C@H](Cc2ccc(O)cc2)NC(=O)[C@H](Cc2ccccc2)NC(=O)CSC[C@@H](C(=O)N[C@@H](C)C(N)=O)NC(=O)[C@H]([C@@H](C)O)NC(=O)[C@H](C(C)C)NC1=O` [Compound 1171] ({CH2CO}-FYDWV[Bip]R[NMeA][dBta][Orn]LVTCA-NH2; thioether N-14) as the molecule, how does the IC50 read?
**A.** 0.15 µM

**Q.** Which IC50 does the source give for `CC(C)C[C@@H]1NC(=O)[C@H](CCN)NC(=O)[C@@H](CC(C)C)NC(=O)[C@H](C)N(C)C(=O)[C@H](CCC(=O)O)NC(=O)[C@H](Cc2ccc(-c3ccccc3)cc2)NC(=O)[C@H](C(C)C)NC(=O)[C@H](Cc2c[nH]c3ccccc23)NC(=O)[C@H](CC(N)=O)NC(=O)[C@H](Cc2ccc(O)cc2)NC(=O)[C@H](Cc2ccncc2)NC(=O)CSC[C@@H](C(=O)N[C@@H](C)C(N)=O)NC(=O)[C@H](C(C)O)NC(=O)[C@H](C(C)C)NC1=O` (stereo partly drawn) [Compound 2056] ({CH2CO}-[4Pal]YNWV[Bip]E[NMeA][dL][Dab]LV[Thr(3ξ)]CA-NH2; thioether N-14) here?
**A.** 0.04 µM

**Q.** For `Cc1cccc(C[C@@H]2NC(=O)[C@H](CC(=O)O)NC(=O)[C@H](Cc3ccc(OCC(=O)O)cc3)NC(=O)C(Cc3ccncc3)NC(=O)CSC[C@@H](C(=O)NC3(C(N)=O)CC3)NC(=O)[C@H](CO)NC(=O)[C@H](C(C)C)NC(=O)[C@H](CC3CCCCC3)NC(=O)[C@H](CCN)NC(=O)[C@@H](CC(C)C)NC(=O)[C@H](C)N(C)C(=O)[C@H](Cc3ccc(OCC(=O)O)cc3)NC(=O)[C@H](Cc3ccc(-c4ccccc4)cc3)NC(=O)[C@H](Cc3ccc(OCC(=O)O)cc3)NC2=O)c1` (stereo partly drawn) [Compound 1863] ({CH2CO}-[ξ4Pal]Y(Carboxymethyl)D[Phe(3-Me)]Y(Carboxymethyl)[Bip]Y(Carboxymethyl)[NMeA][dL][Dab][Cha]VSC[Ac3c]-NH2; thioether N-14), which IC50 is on record?
**A.** 0.01 µM

**Q.** For `CC(C)C[C@@H]1NC(=O)[C@H](CCCNC(=N)N)NC(=O)[C@@H](CC(C)C)NC(=O)[C@H](C)N(C)C(=O)[C@H](CCCNC(N)=O)NC(=O)[C@H](Cc2ccc(-c3ccccc3)cc2)NC(=O)[C@H](C(C)C)NC(=O)[C@H](Cc2c[nH]c3ccccc23)NC(=O)[C@H](CC(=O)O)NC(=O)[C@H](Cc2ccc(O)cc2)NC(=O)[C@H](CC(N)=O)NC(=O)CSC[C@@H](C(=O)N[C@@H](CCC(=O)O)C(N)=O)NC(=O)[C@H](CO)NC(=O)[C@H](C(C)C)NC1=O` [Compound 1236] ({CH2CO}-NYDWV[Bip][Cit][NMeA][dL]RLVSCE-NH2; thioether N-14), which IC50 is on record?
**A.** 0.11 µM

**Q.** `CCCC[C@@H]1NC(=O)[C@H](CCN)NC(=O)[C@@H](CC(C)C)NC(=O)[C@H](C)N(C)C(=O)[C@H](CCCNC(=N)N)NC(=O)[C@H](Cc2ccc(-c3ccccc3)cc2)NC(=O)[C@H](C(C)C)NC(=O)[C@H](Cc2c[nH]c3ccccc23)NC(=O)[C@H](CC(=O)O)NC(=O)[C@H](Cc2ccc(O)cc2)NC(=O)[C@H](CC(N)=O)NC(=O)CSC[C@@H](C(=O)N[C@@H](C)C(N)=O)NC(=O)[C@H]([C@@H](C)O)NC(=O)[C@H](C(C)C)NC1=O` [Compound 1283] ({CH2CO}-NYDWV[Bip]R[NMeA][dL][Dab][Nle]VTCA-NH2; thioether N-14) was tested. Which IC50 did it give?
**A.** 0.04 µM

**Q.** With `CC(C)C[C@@H]1NC(=O)[C@H](CCN)NC(=O)[C@@H](CC(C)C)NC(=O)[C@H](C)N(C)C(=O)[C@H](CCCNC(=N)N)NC(=O)[C@H](Cc2ccc(-c3ccccc3)cc2)NC(=O)[C@H](C(C)C)NC(=O)[C@H](Cc2c[nH]c3ccccc23)NC(=O)[C@H](CC(=O)O)NC(=O)[C@H](Cc2cccc(C#N)c2)NC(=O)[C@H](CC(N)=O)NC(=O)CSC[C@@H](C(=O)N[C@@H](C)C(N)=O)NC(=O)[C@H]([C@@H](C)O)NC(=O)[C@H](C(C)C)NC1=O` [Compound 1308] ({CH2CO}-N[Phe(3-CN)]DWV[Bip]R[NMeA][dL][Dab]LVTCA-NH2; thioether N-14) as the molecule, how does the IC50 read?
**A.** 0.11 µM

**Q.** Which IC50 does the source give for `Cc1cccc(C[C@@H]2NC(=O)[C@H](CC(=O)O)NC(=O)[C@H](Cc3ccc(OCC(=O)O)cc3)NC(=O)[C@H](C(C)O)NC(=O)CSC[C@@H](C(=O)N[C@H](CCN)C(N)=O)NC(=O)[C@H](C(C)(C)O)NC(=O)[C@H](C(C)C)NC(=O)[C@H](CC3CCCCC3)NC(=O)[C@H](CCN)NC(=O)[C@@H](CC(C)C)NC(=O)[C@H](C)N(C)C(=O)[C@H](Cc3ccc(OCC(=O)O)cc3)NC(=O)[C@H](Cc3ccc(-c4ccccc4)cc3)NC(=O)[C@H](Cc3ccc(C(=O)O)cc3)NC2=O)c1` (stereo partly drawn) [Compound 2156] ({CH2CO}-[Thr(3ξ)]Y(Carboxymethyl)D[Phe(3-Me)][Phe(4-COOH)][Bip]Y(Carboxymethyl)[NMeA][dL][Dab][Cha]V[Val(3-OH)]C[dDab]-NH2; thioether N-14) here?
**A.** 0.12 µM

**Q.** Which IC50 does the source give for `COc1cccc(C[C@@H]2NC(=O)[C@H](CC(=O)O)NC(=O)[C@H](Cc3ccc(O)cc3)NC(=O)[C@H](CC(N)=O)NC(=O)CSC[C@@H](C(=O)N[C@@H](C)C(N)=O)NC(=O)[C@H]([C@@H](C)O)NC(=O)[C@H](C(C)C)NC(=O)[C@H](CC(C)C)NC(=O)[C@H](CCCNC(=N)N)NC(=O)[C@@H](CC(C)C)NC(=O)[C@H](C)N(C)C(=O)[C@H](C(C)C)NC(=O)[C@H](Cc3ccc(-c4ccccc4)cc3)NC(=O)[C@H](C(C)C)NC2=O)c1` [Compound 1292] ({CH2CO}-NYD[Phe(3-OMe)]V[Bip]V[NMeA][dL]RLVTCA-NH2; thioether N-14) here?
**A.** 0.03 µM

**Q.** `Cc1cccc(C[C@@H]2NC(=O)[C@H](CC(=O)O)NC(=O)[C@H](Cc3ccc(OCC(=O)O)cc3)NC(=O)[C@H](CN)NC(=O)CSC[C@@H](C(N)=O)NC(=O)[C@H](CO)NC(=O)[C@H](C(C)C)NC(=O)[C@H](CC3CCCCC3)NC(=O)[C@H](CCN)NC(=O)[C@@H](CC(C)C)NC(=O)[C@@H]3CCCCN3C(=O)[C@H](Cc3ccc(OCC(=O)O)cc3)NC(=O)[C@H](Cc3ccc(-c4ccccc4)cc3)NC(=O)[C@H](Cc3ccc(OCC(=O)O)cc3)NC2=O)c1` [Compound 1892] ({CH2CO}-[Dap]Y(Carboxymethyl)D[Phe(3-Me)]Y(Carboxymethyl)[Bip]Y(Carboxymethyl)[Pip][dL][Dab][Cha]VSC-NH2; thioether N-14) was tested. Which IC50 did it give?
**A.** 0.06 µM

**Q.** Which IC50 does the source give for `C#CC[C@H](NC(=O)CNC(=O)[C@@H]1CSCC(=O)N[C@@H](Cc2ccc(OCC(=O)O)cc2)C(=O)N[C@@H](Cc2ccc(C(=O)O)cc2)C(=O)N[C@@H](CC(=O)O)C(=O)N[C@@H](Cc2c[nH]c3ccccc23)C(=O)N[C@@H](CC(C)C)C(=O)N[C@@H](Cc2ccc(-c3ccccc3)cc2)C(=O)N[C@@H](C(C)C)C(=O)N(C)[C@@H](C)C(=O)N[C@H](CC(C)C)C(=O)N[C@@H](CCN)C(=O)N[C@@H](CC2CCCCC2)C(=O)N[C@@H](C(C)C)C(=O)N[C@@H](CO)C(=O)N1)C(=O)O` [Compound 1934] ({CH2CO}-Y(Carboxymethyl)[Phe(4-COOH)]DWL[Bip]V[NMeA][dL][Dab][Cha]VSCG[Pra]-OH; thioether N-14) here?
**A.** 0.01 µM
